Data: patent US11266647B2, “Method for increasing cell proliferation in pancreatic beta cells, treatment method, and composition” (ICAHN SCHOOL OF MEDICINE AT MOUNT SINAI, priority 2016, dated 2022)
“Also recorded” adds a separate entry of the source.

Key:
[1] = system: human beta cells; assay: Ki67 labeling of insulin-positive cells in dispersed human cadaveric islets; assay type: cell-based; details: for Ki67 labeling with other DYRK1A inhibitors in combination therapy: DYRK1A inhibitor other than harmine, with TGFβSF inhibitor
Excerpt: (§1) Primary antisera were: BrdU (ab6326, Abcam), Ki67 (RM-9106-sl, Thermo Scientific, and MIB1, DAKO), p-Histone-3 (06-570, Millipore), insulin (A0564, DAKO), p-yH2AX (MA1-2022, Thermo Scientific), NKX6.1 (F55A10-c, University of Iowa), PDX1 (07-696, Millipore), MAFA (Ab26405, Abcam), Glucagon (2760s, Cell Signaling), Somatostatin (Sc-20999, Santa Cruz), Pancreatic Polypeptide (A0619, DAKO), and CK19 (Ab52625, Abcam). Species-specific mouse Alexa Fluor 488 (A-11029, Life Technologies), rat Alexa Fluor 594 (A-11007, Life Technologies), rabbit Alexa Fluor 488 (A11037, Life Technologies) or guinea pig Alexa Fluor 488 (A-11073, Life Technologies) secondary antisera were selected as appropriate.

[2] = system: SMAD signaling; assay: Immunoblots of SMADs in whole human islets; assay type: cell-based
Excerpt: (§2) The immunoblots are representative of separate experiments in human islets from three different donors. […] Ad.shLacZ indicates a sh-adenovirus for the Ad.shDYRK1A.
Primary antisera employed were: SMAD2/3 (Cell Signaling, 8685p), p-SMAD3 (Abcam, ab52903), SMAD4 (Sc-7966, Santa Cruz), SMAD1/5/9 (ab66737, Abcam), p15INK4 (Abcam, ab53034), p16INK4a (Sc-468, Santa Cruz), p21CIP (556430, BD), p57CIP2 (2557s, Cell Signaling) and GAPDH (Sc-25778, Santa Cruz).
To ascertain whether the harmine-TGFβSF inhibitor combination affected SMAD signaling, human islets were incubated with harmine alone or in combination with two TGFβSF inhibitors: LY or ALK5 (FIG. 5A).

[3] = system: mouse beta cells; assay: Mouse pancreas study: beta cell Ki-67/insulin after 7 days i.p. treatment; assay type: in vivo, C57BL/6N mice; details: C57BL6N mice, i.p. daily 7 days, harmine 10 mg/kg, GW788388 30 mg/kg
Protocol: (§3) On day seven, treatment was begun exactly as in FIG. 9A for seven days.
Male C57BL/6N mice (12 week-old) received vehicle (saline), 10 mg kg^−1 harmine HCl, 30 mg kg^−1 GW788388 or the combination of harmine and GW788388 by intraperitoneal injection daily for 7 days. Mice were sacrificed on day 7, pancreata harvested, fixed in 10% neutral buffered formalin, paraffin embedded, and sectioned. […] A minimum of 2,000 beta cells per pancreas were counted. Investigators were blinded as to group assignments.
(§4) To evaluate the effects of harmine and TGFβ inhibitor in vivo, C57BL6N mice were administered vehicle ([…]), harmine, GW788388, or the combination of harmine plus GW788388 intraperitoneally for seven days, sacrificed, and evaluated for insulin and Ki67. […] Next, human cadaveric islets were transplanted into NOD-SCID mice.

[4] = system: human beta cells; assay: Human islet transplant under renal capsule of NOD-SCID mice: beta cell Ki-67/insulin; assay type: in vivo, human islets in NOD-SCID mice; details: i.p. daily 7 days, harmine 10 mg/kg, GW788388 30 mg/kg
Protocol: as §3
Mice were allowed to recover for 7 days and then treated with vehicle (saline), 10 mg kg-1 harmine HCl, 30 mg kg-1 GW788388 or the combination of harmine and GW788388 by intraperitoneal injection daily for 7 days. Mice were sacrificed on day 7, renal grafts harvested, fixed in 10% neutral buffered formalin, paraffin embedded and sectioned.
as §4

[5] = system: human beta cells; assay: Ki67 immunolabeling in human islets with adenoviral silencing or overexpression plus drug; assay type: cell-based
Protocol: as §2
Unless otherwise described, all transductions were performed using 150 moi for one hour, and studies performed 72 hours later. […] Adenoviruses encoding human SMAD6 or SMAD7 were prepared as described using cDNAs encoding SMAD6 and SMAD7 obtained from Harvard PlasmID Database.
as §1

[6] = system: TGFβ superfamily members; assay: RNAseq of whole human islets; assay type: cell-based
[7] = system: beta cells of T2D islets; assay: Ki67 immunolabeling in islets from donors with Type 2 diabetes; details: harmine alone
Excerpt: Islets from normal and Type 2 diabetes adult cadaveric pancreas donors were obtained from the NIH/NIDDK-supported Integrated Islet Distribution Program and from the Alberta Diabetes Institute. Depending on the experiments performed, islets were used either as intact islets, or were first dispersed with Accutase (Sigma, St. Louis, Mo.) onto coverslips.

[8] = system: cell cycle activators and cell cycle inhibitors; assay: qPCR of cell cycle activators and inhibitors in whole human islets
Protocol: Gene expression in dispersed islets was analyzed by real-time PCR performed on an ABI 7500 System.
Reasoning that harmine and harmine-TGFβ inhibitors (and DYRK1A and SMADs, respectively) must ultimately orchestrate cell cycle entry via cell cycle activators and cell cycle inhibitors, gene expression of cell cycle activators and inhibitors was examined in whole islets treated with vehicle, harmine, TGFβ inhibitor or the harmine-TGFβ inhibitor combination (FIGS. 6A-6B).

`O=C1NC(Nc2ccccc2)=N/C1=C\c1ccc2c(c1)OCO2` [leucettine-41] was tested, and the “activation of human beta cell proliferation” value ([1]; DYRK1A inhibitor) was “able to activate human beta cell proliferation” and the “Ki67 labeling with other DYRK1A inhibitors in combination therapy” value [1] was “beneficial effects”.
With `Cc1cccc(-c2n[nH]cc2-c2ccc3ncccc3n2)n1` [ALK5 inhibitor, 2-(3-(6-Methylpyridin-2-yl)-1H-pyrazol-4-yl)-1,5 napththyridine] the “p-SMAD3 (SMAD3 phosphorylation), immunoblot” value (“p-SMAD3” for short) [2] was “further reduced”.
For `c1ccc(-c2n[nH]cc2-c2ccnc3ccccc23)nc1` [LY364947, 4-[3-(2-Pyridinyl)-1H-pyrazol-4-yl]-quinoline], the “p-SMAD3” value [2] was “further reduced”.
For `O=C(NC1CCOCC1)c1ccc(-c2cc(-c3c[nH]nc3-c3ccccn3)ccn2)cc1` [GW788388, 4-(4-(3-(pyridin-2-yl)-1H-pyrazol-4-yl)pyridin-2-yl)-N-(tetrahydro-2H-pyran-4-yl)benzamide], the “mouse beta cell proliferation in vivo (Ki67/insulin)” value [3] was “induced beta cell proliferation”, the “human beta cell proliferation in vivo in transplanted islets” value [4] was “had no effect” and the “proliferation with adenoviral silencing of DYRK1A” value ([5]; Ad.shDYRK1A plus TGFβ inhibitor) was “markedly accentuates proliferation”.
`COc1ccc2c(c1)[nH]c1c(C)nccc12` [harmine] was tested, and the “p-SMAD3” value [2] was “reductions; also recorded: reduced”, the “total SMAD1/5/9, immunoblot” value [2] was “reductions; also recorded: reduced” and the “mouse beta cell proliferation in vivo (Ki67/insulin)” value [3] was “induced beta cell proliferation”. The “human beta cell proliferation in vivo in transplanted islets” value [4] was “increased this rate”, the “BMP1 (RNAseq)” value ([6]; Donor 1) was 4 FPKM and the “BMP5 (RNAseq)” value ([6]; Donor 1) was 26 FPKM. For the same compound, the “GDF11 (RNAseq)” value ([6]; Donor 1) was 3 FPKM, the “INHA (RNAseq)” value ([6]; Donor 1) was 1 FPKM and the “TGFB2 (RNAseq)” value ([6]; Donor 1) was 3 FPKM. For the same compound, the “TGFBR1 (RNAseq)” value ([6]; Donor 1) was 9 FPKM, the “TGFBR2 (RNAseq)” value ([6]; Donor 1) was 3 FPKM and the “TGFB1 (RNAseq)” value ([6]; Donor 1, row r7) was 24 FPKM. For the same compound, the “TGFB1 (RNAseq), second line so named” value ([6]; Donor 1, row r11) was 62 FPKM, the “BMP1 (RNAseq)” value ([6]; Donor 2) was 3 FPKM and the “BMP5 (RNAseq)” value ([6]; Donor 2) was 20 FPKM. For the same compound, the “GDF11 (RNAseq)” value ([6]; Donor 2) was 3 FPKM, the “INHA (RNAseq)” value ([6]; Donor 2) was 1 FPKM and the “TGFB2 (RNAseq)” value ([6]; Donor 2) was 2 FPKM. For the same compound, the “TGFBR1 (RNAseq)” value ([6]; Donor 2) was 8 FPKM, the “TGFBR2 (RNAseq)” value ([6]; Donor 2) was 3 FPKM and the “TGFB1 (RNAseq)” value ([6]; Donor 2, row r7) was 19 FPKM. For the same compound, the “TGFB1 (RNAseq), second line so named” value ([6]; Donor 2, row r11) was 22 FPKM, the “changes in TGFβSF members on harmine treatment of human islets” value ([6]; RNAseq) was “notable changes” and the “harmine-induced proliferation with overexpression of SMADs 6 and 7” value ([5]; adenoviral overexpression, 100 moi) was “markedly enhanced”. The “harmine-induced proliferation with silencing of SMADs 2, 3, and 4” value ([5]; adenoviral silencing, 150 moi each) was “further enhanced”, the “proliferation with silencing of CDKN1A and/or CDKN1C” value ([5]; harmine 10 μM) was “robust human beta cell proliferation” and the “Ki67 immunolabeling in T2D islets” value [7] was “increased Ki67 immunolabeling to the same degree observed in non-diabetic islet donors”. For the same compound, the “expression of cell cycle activators (e.g., CDK1, CCNA1, CCNE2, CDC25A)” value ([8]; harmine 10 μM, LY364947 5 μM, qPCR) was “induced expression”, the “cell cycle inhibitor expression other than CDKN1C” value ([8]; harmine alone) was “modest and limited effects” and the “decline of CDKN1C (p57KIP2) expression” value ([8]; harmine alone, qPCR) was ~50%.
In the case of `CCN1/C(=C/C(C)=O)Sc2ccc(O)cc21` [INDY], the “Ki67 labeling with other DYRK1A inhibitors in combination therapy” value [1] is reported as “beneficial effects”.
